Assay results: US5092876A, “Cell attachment peptides derived from amyloid P component” (The United States of America as represented by the …, priority 1989, dated 1992)

The substances below were run on cells (assay: Cell attachment assay, peptides/proteins from amyloid P component coated on plates (Table I)). Details: plates coated with peptide/protein (20 uM); average ± SEM.
Format: cell-based
Experimental: All cell types used were obtained from American Type Culture Collection, Rockville, Md. and were maintained in Dulbecco's modified Eagle's medium (DMEM) supplemented with 10% fetal calf serum (FCS). The cells were grown to approximately 80% confluency in Falcon T75 flasks. For cell attachment assays, cells were washed with PBS (pH 7.4), and then detached from the tissue culture flasks with 0.025% trypsin, 0.025% EDTA.
The cells were sedimented by low speed centrifugation, suspended in serum-free Eagle's minimal essential medium (EMEM) containing 0.05% BSA and used immediately in the cell attachment assays.
Cell attachment was assayed as described by Graf et al., Biochemistry 26, 6896-6900 (1987). 24 well plastic culture plates (Linbro, Flow Laboratories, Inc., Va.) were coated with the desired peptides at 25° C. for 16 h in 0.1M bicarbonate buffer, pH 9.6. Exposed non-specific cell attachment sites were blocked by coating the wells with 3% BSA for 1 h at 25° C. Cells, (1.1×10^5), prepared as described above, were added to each well and incubated at 37° C. for 1 h in a humidified incubator with 5% CO2 --95% air mixture. At the end of incubation, plates were gently washed twice with PBS to remove unattached cells. Attached cells were treated with trypsin and electronically counted. […] Each peptide was tested for cell attachment in six separate experiments.
Tissue culture plates (obtained from Linbro, Flow Laboratories, Inc., Va.) were coated with peptides or proteins at […]. Before coating (a) AP was denatured with 6M Guanidine HCl (GnHCl) for 2 h at 4° C. GnHCl was removed by extensive dialysis against 0.1M bicarbonate buffer, pH 9.6 at 4° C.; (b) AP was heat-denatured at 100° C. for 15 min.; (c) native AP was reduced and the free sulfhydryl groups were blocked by carboxymethylation, and (d) heat-denatured AP was treated as in (c). The values are expressed as the average ± SEM, and are reported hereinbelow in Table I.
For “GnHCl-Denatured SAP (a): AP denatured with 6M Guanidine HCl for 2 h at 4° C., GnHCl removed by dialysis”, the No. attached cells was 3835 ± 424. Work on “Heat-Denatured SAP (b): AP heat-denatured at 100° C. for 15 min.” yielded a No. attached cells of 3926 ± 552. Substance “Native SAP: Amyloid P component isolated from normal human serum, 125 kDa glycoprotein” has a No. attached cells of 3125 ± 348. In the case of “Reduced (heat-denatured SAP)/carboxymethylated (d): heat-denatured AP reduced and carboxymethylated as in (c)”, the No. attached cells is reported as 3436 ± 396. With “Reduced (native)/carboxy-methylated (c): native AP reduced and the free sulfhydryl groups blocked by carboxymethylation” the No. attached cells was 2558 ± 428.
